Columns and labels:
Assay type in all cases: physicochemical
[1] = DSC/XRPD of binary mixtures of isometheptene mucate and mannitol (eutectic formation); conditions: binary mixtures at different ratios
Method: Because mannitol is a common excipient in solid drug formulations, it was examined for compatibility with racemic isometheptene mucate and investigated using DSC and the interactions occurring were assessed. […] To confirm the formation of a eutectic and to characterize its physical properties, several binary mixtures at different ratios of racemic isometheptene mucate and excipient were prepared and analyzed by DSC and by XRPD. The eutectic formation improved the cohesion between the racemic isometheptene mucate and excipient particles and assured better physical linking between the two.
In order to confirm the eutectic formation and to characterize its physical properties, several binary mixtures at different ratios of racemic isometheptene mucate-excipient were prepared and analyzed by DSC and by X-ray powder diffraction (XRPD). […] For each DSC heating curve, the onset temperature and the enthalpy were evaluated both for the eutectic contribute and for the excess of component. The recorded values were plotted and a phase diagram between the two components was obtained with a characteristic profile of phase diagrams of eutectic mixtures. […]
Aliquots of racemic isometheptene mucate API and mannitol were weighed in the ratios described below and ground in an agate mortar, and the homogeneous mixtures subsequently analyzed. […]

[2] = DSC/XRPD of 75:25 mixtures of (R)-isometheptene salts and β-mannitol; conditions: for Physical interaction with β-mannitol: 75:25 salt:mannitol, dry-granulated or wet-granulated, DSC confirmed by XRPD; for Eutectic formation with mannitol: (R)-isometheptene salts other than mucate, 75:25 with β-mannitol
Method: Thermal analytical techniques were used to analyze mixtures of several (R)-isometheptene salts and β-mannitol in a ratio of 75:25. (R)-isometheptene salts tested were as follows: (R)-isometheptene maleate, (R)-isometheptene malate, and (R)-isometheptene tartrate. Based on the thermal events recorded for each component and for the mixtures, the analyses were carried out by investigating the peaks recorded by differential scanning calorimetry (DSC) in mixture between (R)-isometheptene mucate and the excipients. Differences in thermal profiles between the single compound and the related mixture were evaluated.
Aliquots of (R)-isometheptene salts and each excipient were weighed in a ratio of 1:1 (unless specified otherwise) and ground in an agate mortar with (wet-granulation) or without (dry-granulation) a small amount of water. The homogeneous mixtures then were analyzed.
(§1) The DSC heating curves were obtained with a TA 821 DSC Mettler instrument under the following conditions:
(§2) Heating rate: 10° C./min Ambient: Nitrogen 30 mL/min Sample holder: normal open aluminum pan Temperature range: from 25° C. to 250° C. Instrument calibration: Indium sample purity 99.999%
(§3) X-ray powder diffraction (XRPD) tests were performed with the ULTIMA IV instrument (Rigaku), laying the sample on a static sample holder. The X-ray focusing slit has a variable width, interlocked with the q value. The X-ray tube has a copper target, with a current intensity of 40 mA and a voltage of 40 kV. Radiation was generated by the Cockcroft-Walton method, and was constituted by Kα1 (1.540562 Å) and Kα2 (1.544398 Å). The analytical conditions were:
(§4) Fixed Time; sampling width 0.02 deg, scanning rate 1.3 s/step, 2 q range 3.35 deg and sample holder; amorphous glass equiangular 9200/2G, 0.2 mm deep. The sample was pressed with a glass plate.

[3] = Excipient compatibility of racemic isometheptene mucate by DSC/XRPD (1:1 mixtures); conditions: 1:1 weight ratio, ground in agate mortar, DSC (XRPD for mannitol)
Method: (§5) Thermal analytical techniques were used to assess the compatibility of a drug product containing racemic isometheptene mucate. The compatibility assessment was carried out between the racemic isometheptene mucate and a number of possible excipients in a 1:1 weight ratio. Based on the thermal events recorded for each component and for the mixtures, the analyses were carried out by investigating the peaks recorded by differential scanning calorimetry (DSC) in mixture between racemic isometheptene mucate and the excipients. Differences in thermal profiles between the single compound and the related mixture obtained after milling the products in an agate mortar were evaluated.
Aliquots of racemic isometheptene mucate and each excipient were weighed in a ratio of 1:1 (unless specified otherwise) and ground in an agate mortar. The homogeneous mixtures then were analyzed.
as §1, §2
as §3, with “K+1” for “Kα1”
as §4

[4] = Excipient compatibility of (R)-isometheptene mucate by DSC/XRPD (1:1 mixtures); conditions: 1:1 weight ratio, ground in agate mortar, DSC
Method: as §5, with “mucate (API).” for “mucate.”
Aliquots of (R)-isometheptene mucate and each excipient were weighed in a ratio of 1:1 (unless specified otherwise) and ground in an agate mortar. The homogeneous mixtures then were analyzed.
as §1, §2, §3, §4

Physical interaction with β-mannitol [2]	Eutectic formation with mannitol [2]	Excipient reactions with (R)-isometheptene mucate, Mixture 1:1 [4]	Excipient reactions with API (racemic isometheptene mucate), Mixture 1:1 [3]	Molecule	also measured
–	–	Physical interaction (complex)	–	OC[C@@H](O)[C@@H](O)[C@H](O)[C@H](O)CO [Mannitol SD200]	Excipient reactions with API (racemic isometheptene mucate), Mixture 1:1 ([3]; listed as mannitol SD200): Physical interaction was observed; Excipient reactions with (R)-isometheptene mucate, Mixture 1:1 ([4]; listed as mannitol SD200): Physical interaction was observed
–	–	–	Physical interaction (complex)	OC[C@@H](O)[C@@H](O)[C@H](O)[C@H](O)CO [Mannitol]	Excipient reactions with API (racemic isometheptene mucate), Mixture 1:1 ([3]; listed as mannitol): Physical interaction was observed
–	–	–	YES	CCCCCCCCCCCCCCCCCC(=O)O [Stearic acid]	Excipient reactions with API (racemic isometheptene mucate), Mixture 1:1 ([3]; listed as stearic acid): physical interaction was observed
–	–	No interaction reported	No interaction reported	Isomalt	–

More lines, now with the values behind:

Molecule	Physical interaction with β-mannitol [2]	Eutectic formation with mannitol [2]	Excipient reactions with (R)-isometheptene mucate, Mixture 1:1 [4]	Excipient reactions with API (racemic isometheptene mucate), Mixture 1:1 [3]	also measured
CNC(C)CCC=C(C)C.CNC(C)CCC=C(C)C.O=C(O)[C@@H](O)[C@H](O)[C@H](O)[C@@H](O)C(=O)O (racemic) [racemic isometheptene mucate, reference compound]	–	–	–	–	Interaction with mannitol (eutectic vs adduct) [1]: only a physical eutectic formation
CN[C@H](C)CCC=C(C)C.O=C(O)CC(O)C(=O)O [(R)-isometheptene malate]	No physical interaction was observed	do not form a eutectic composition	–	–	–
CN[C@H](C)CCC=C(C)C.O=C(O)/C=C\C(=O)O [(R)-isometheptene maleate]	No physical interaction was observed	do not form a eutectic composition	–	–	–
CN[C@H](C)CCC=C(C)C.O=C(O)C(O)C(O)C(=O)O [(R)-isometheptene tartrate]	No physical interaction was observed	do not form a eutectic composition	–	–	–
Magnesium stearate	–	–	YES	YES	Excipient reactions with API (racemic isometheptene mucate), Mixture 1:1 ([3]; listed as magnesium stearate): small physical interaction was observed; Excipient reactions with (R)-isometheptene mucate, Mixture 1:1 ([4]; listed as magnesium stearate): small physical interaction was observed
